Like-named read-outs stand apart in the source and are kept apart here. Blank lines part the entries; values can stand above or below the molecule they belong to.
Tests used:
[1] = Stability of working solutions; type: physicochemical
Protocol: Stability of the analyte was assessed using five measurements of QC samples at low and high concentrations after exposure to different conditions of storage and processing temperature. Baracitinib stability was evaluated after three freeze-thaw cycles, storage at room temperature (23–25 °C) for 6 h (short term stability), and subsequent storage for eight weeks at −80 °C (long term stability). […]

[2] = cited from earlier work
P-glycoprotein (Pgp) = tested on: P-glycoprotein (Pgp); parameters: method as in PMID 30907116; conditions: cited from earlier work
[3] = Stability of quality control samples in rat plasma; type: in vitro ADME; conditions: n = 6
Protocol: […] Baracitinib stability was evaluated after three freeze-thaw cycles, storage at room temperature (23–25 °C) for 6 h (short term stability), and subsequent storage for eight weeks at −80 °C (long term stability). Moreover, the stability of stock and working solutions of baricitinib and the IS at room temperature for 6 h (23–25 °C) and at refrigerator (2–8 °C) for 12 days was tested.

CYP3A4 enzyme = tested on: CYP3A4 enzyme; parameters: method as in PMID 30907116; conditions: cited from earlier work
[4] = Pharmacokinetic study in rats after oral administration of baricitinib suspension; type: in vivo, Sprague Dawely rats
Protocol: Sample analysis was performed on an Acquity TQD UPLC-MS/MS system (Waters Co., Milford, MA, USA). The triple quadrupole mass spectrometer was operated in the MRM mode, and detection was carried out using electrospray ionization (ESI) in the positive ion mode. In addition, the mass spectrometry parameters including parent to daughter ion transition, collision energy, cone voltage, and dwell time were optimized to determine the analyte and IS (Table 5). The collision gas (argon) flow rate was kept at 0.1 mL/min and the desolvation gas (nitrogen) flow rate was optimized to 600 L/h. […] The flow rate was 0.2 mL/min.
Baricitinib and IS were extracted from rat plasma using liquid–liquid extraction. 20 µL of irbesartan working solution (20 µg/mL) was added to 100 µL plasma samples. After vortex-mixing for 20 s, 1 mL of n-hexane:dichlromethane mixture (1:1) was added. Samples were then mixed for 1 min and centrifuged for 5 min at 5600× g. The supernatant (0.8 mL) was transferred to a 5-mL tube and evaporated to dryness at 40 °C. Residues were reconstituted in 100 µL of the mobile phase and 5 µL was injected into the LC-MS/MS system.
Sprague Dawely rats weighing 200–230 g were obtained from the animal house at the National Organization for Drug Control and Research, Giza, Egypt. Rats were fed standard sufficient food and water and experiments were performed under the Guide for Care and Use of laboratory animals. experimental protocols were approved by the ethics committee of the Faculty of Pharmacy at Al-Azhar University, Cairo, Egypt (no. 206).
Baricitinib was used to create a suspension using 1% carboxymethyl cellulose. Following overnight fasting, the drug was administered in a dose of 2 mg/10 mL/kg. Blood samples (approximately 0.25 mL) were then collected from the retro-orbital plexus into heparinized tubes at 0.0, 0.25, 0.5, 0.75, 1.0, 1.25, 2.0, 3.0, 5.0, 7.0, 9.0, and 11.0 h post-dosing. Plasma samples were obtained by centrifuging the blood at 4250× g for 5 min and stored frozen at −80 °C until analysis. The pharmacokinetic parameters Cmax, tmax, AUC, t½, and Kel were calculated using WinNonlin software.

[5] = parameters: method as in earlier work; conditions: pre-clinical animal studies, at higher dosages; cited from earlier work
[6] = cited from earlier work; remark: listed apart in the source
[7] = tested on: breast cancer resistance protein (BCRP); parameters: method as in PMID 30907116; conditions: cited from earlier work
[8] = tested on: multidrug and toxic extrusion protein (MATE) 2-K; parameters: method as in PMID 30907116; conditions: cited from earlier work
[9] = tested on: organic anionic transporter (OAT) 3; parameters: method as in PMID 30907116; conditions: cited from earlier work
[10] = parameters: method as in PMID 24965573; conditions: cited from earlier work
[11] = refrigerated temperature (2–8 °C) for 10 days
[12] = room temperature (23–25 °C) for 6 h
[13] = co-administration of high-fat meal
[14] = with rifampicin (potent CYP3A inducer)
[15] = Auto-sampler, nominal 40.0 ng/mL
[16] = Auto-sampler, nominal 400.0 ng/mL
[17] = Bench top (6 h), nominal 400.0 ng/mL
[18] = Long term (at −80 °C for 8 weeks), nominal 40.0 ng/mL
[19] = Long term (at −80 °C for 8 weeks), nominal 400.0 ng/mL
[20] = Thaw/freeze (3 cycles), nominal 40.0 ng/mL
[21] = Thaw/freeze (3 cycles), nominal 400.0 ng/mL
[22] = Sprague-Dawley, rat, plasma, male rats, oral 2 mg/kg suspension, fasted, mean ± SD
[23] = rats, literature value higher than present work

- Stability of working solution [1, 11]: stable
- Stability of working solution [1, 12]: stable
Structure (SMILES): CCCCC1=NC2(CCCC2)C(=O)N1Cc1ccc(-c2ccccc2-c2nnn[nH]2)cc1 [IS, irbesartan]

- Stability, Accuracy (%) [3, 15]: 89.0%
- Stability, measured conc. Mean ± SD [3, 15]: 35.6 ± 2.69 ng/mL
- Stability, Accuracy (%) [3, 16]: 90.1%
- Stability, measured conc. Mean ± SD [3, 16]: 360.36 ± 11.52 ng/mL
- Stability, measured conc. Mean ± SD ([3]; Bench top (6 h), nominal 40.0 ng/mL): 34.61 ± 3.03 ng/mL
- Stability, Accuracy (%) [3, 17]: 85.8%
- Stability, measured conc. Mean ± SD [3, 17]: 343.27 ± 44.76 ng/mL
- Stability, Accuracy (%) [3, 18]: 86.6%
- Stability, measured conc. Mean ± SD [3, 18]: 34.63 ± 4.63 ng/mL
- Stability, Accuracy (%) [3, 19]: 87.64%
- Stability, measured conc. Mean ± SD [3, 19]: 350.56 ± 28.53 ng/mL
- Stability, Accuracy (%) [3, 20]: 85.1%
- Stability, measured conc. Mean ± SD [3, 20]: 34.09 ± 3.99 ng/mL
- Stability, Accuracy (%) [3, 21]: 86.4%
- Stability, measured conc. Mean ± SD [3, 21]: 345.73 ± 39.84 ng/mL
- AUC(0-inf) [4, 22]: 0.223 ± 0.107 µg·h/mL
- Cmax [4, 22]: 0.129 ± 0.0914 µg/mL
- MRT [4, 22]: 3.3 ± 0.78 h
- half-life [4, 22]: 2.24 ± 0.43 h
- AUC(0-t) ([4]; Sprague-Dawley, rat, plasma, male rats, oral 2 mg/kg suspension, fasted, mean ± SD, read-out: AUC0-11): 0.205 ± 0.101 µg·h/mL
- Tmax ([4]; Sprague-Dawley, rat, plasma, male rats, oral 2 mg/kg suspension, fasted, median): 0.5 h
- Difference in AUC, value reported by Veeraraghavan et al. versus present work [4, 23]: 4.3 fold
- Difference in Cmax, value reported by Veeraraghavan et al. versus present work [4, 23]: 5 fold
- Stability of working solution [1, 11]: stable
- Stability of working solution [1, 12]: stable
Structure (SMILES): CCS(=O)(=O)N1CC(CC#N)(n2cc(-c3ncnc4[nH]ccc34)cn2)C1 [baricitinib, Baricitinib]
- Delay in tmax [2, 13]: 3 h
- Effect on AUC [2, 13]: no effect
- Reduction of Cmax [2, 13]: about 29%
- Change of clearance ([2]; with an inhibitor of the transporter OAT3): reduced
- Effect on baricitinib pharmacokinetics ([2]; with fluconazole (CYP2C19/CYP2C9/CYP3A inhibitor)): did not significantly affect
- Effect on baricitinib pharmacokinetics ([2]; with ketoconazole (CYP3A inhibitor)): did not significantly affect
- Change of Cmax (rate of absorption) ([2]; with probenecid): not significantly increased
- Potentiation of AUC0-inf ([2]; with probenecid): twofold
- Renal clearance decreased to ([2]; with probenecid): 69%
- Change of AUC [2, 14]: decreased
- Change of Cmax [2, 14]: without affecting
- Substrate of P-glycoprotein (Pgp) (P-glycoprotein (Pgp)): substrate
- Metabolism by CYP3A4 (CYP3A4 enzyme): primarily metabolized
- Embryotoxicity and teratogenicity [5]: embryotoxicity, teratogenicity, and adverse effect on bone development in utero
- LDL-C and HDL-C levels [6]: stable dose-response increase
- Infection risk ([6]; particularly for herpes zoster): elevates infection risk
- Safety and tolerability ([6]; patients with moderate to severe RA treated for 24 weeks): safe and well tolerated
- Substrate of BCRP [7]: substrate
- Substrate of MATE2-K [8]: substrate
- Substrate of OAT3 [9]: substrate
- Time to peak plasma concentrations ([10]; after oral administration): approximately 1 h
- Oral bioavailability [10]: 79%
- Bound to plasma proteins ([10]; mainly albumin): about 50%
